Literature values as cited in patent publication US12263155B2, “Combinations of monoamine oxidase inhibitors and serotonin receptor agonists and their therapeutic use” (Remedi, Inc., priority 2022, dated 2025).
Where two headings read alike, the source gives them in different places.

What was measured:
[1] = in vivo; cited from earlier work
platelet MAO-B = target: T1, platelet MAO-B (Homo sapiens, UniProt P27338); conditions: cited from earlier work
T1 construct: host or cells: human platelets
T1 sequence (P27338 1-520): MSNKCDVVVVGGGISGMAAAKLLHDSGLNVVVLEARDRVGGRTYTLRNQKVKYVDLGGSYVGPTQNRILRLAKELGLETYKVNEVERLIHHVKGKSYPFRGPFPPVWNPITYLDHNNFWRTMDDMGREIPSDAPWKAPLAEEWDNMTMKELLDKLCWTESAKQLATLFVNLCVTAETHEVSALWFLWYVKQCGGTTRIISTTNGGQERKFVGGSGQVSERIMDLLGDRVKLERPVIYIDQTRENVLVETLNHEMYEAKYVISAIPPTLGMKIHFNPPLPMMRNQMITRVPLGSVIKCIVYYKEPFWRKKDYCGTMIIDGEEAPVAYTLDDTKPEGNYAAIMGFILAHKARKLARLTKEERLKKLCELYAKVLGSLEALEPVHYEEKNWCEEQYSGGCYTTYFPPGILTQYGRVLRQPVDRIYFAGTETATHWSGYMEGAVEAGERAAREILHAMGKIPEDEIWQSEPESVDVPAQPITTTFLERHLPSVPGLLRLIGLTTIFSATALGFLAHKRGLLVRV

Row | SMILES | apparent volume of distribution [1] [L/kg] | inhibition of platelet MAO-B (platelet MAO-B; 450 mg dose) [%] | inhibition of platelet MAO-B (platelet MAO-B; human subjects, single 100 mg dose) [%]
1 | CN(C)CCc1c[nH]c2ccccc12 [DMT, N,N-dimethyltryptamine] | 36 to 55 |  | 
2 | O=C(NCCN1CCOCC1)c1ccc(Cl)cc1 [moclobemide] |  | 32 | 27
